Experimental data taken from patent US20230130066A1, “USE OF CYCLODEXTRINS IN DISEASES AND DISORDERS INVOLVING PHOSPHOLIPID DYSREGULATION” (priority 2017, published 2023).
“Also recorded” adds a separate entry of the source. Like-named read-outs stand apart in the source and are kept apart here. Marks after values point to notes of the source that are not given here.

How the values were obtained:
MCF-7 cells = assay: Wound healing / gap closure migration assay, MCF-7; type: cell-based, human; conditions: extrapolated from the results in FIG. 35
Protocol: Cells were cultured in 24-well culture plates (Cytoselect CBA-120, 0.9 mm wound healing/gap closure migration assay) for 24 h with wound healing insert in place.
Protocol: Warm up the 24-well plate (CBA-120, Cell BioLabs Inc.) with 0.9 mm CytoSelect Wound Healing Inserts at room temperature for 10 minutes. Using sterile forceps, orient the desired number of inserts in the plate wells with their “wound field” aligned in the same direction. Create a cell suspension containing 0.5-1.0×10^6 cells/ml in media containing 10% fetal bovine serum (FBS). Add 500 μL of cell suspension to each well by carefully inserting the pipette tip through the open end at the top of the insert. For optimal cell dispersion, add 250 μL of cell suspension to either side of the open ends at the top of the insert. Incubate cells in a cell culture incubator for 12-24 hours. Carefully remove the insert from the well to begin the wound healing assay. Use sterile forceps to grab and lift the insert slowly from the plate well. Slowly aspirate and discard the media from the wells. Wash wells with media to remove dead cells and debris. Finally, add media to wells to keep cells hydrated. Repeat wash if wells still have debris or unattached cells. When washing is complete, add media with FBS and/or compounds to continue cell culture and wound healing process. Agents that inhibit or stimulate cell migration can be added directly to the wells. Incubate cells in a cell culture incubator (2 hours) and then wash cells with PBS and then add fresh media without compounds. Incubate 12-24 hours before wash and fixing. Remove the fixation solution and add 400 μL of Cell Stain Solution to each well. Allow the stain to incubate with the cells for 15 minutes at room temperature. Aspirate and discard the solution. Carefully wash each stained well 3× with deionized water. Discard washes and allow cells to dry at room temperature. Cells that migrated into the wounded area or protruded from the border of the wound were visualized and photographed under an inverted microscope. Determine the surface area of the defined wound area: Total Surface Area=0.9 mm x length. Determine the surface area of the migrated cells into the wound area: Migrated Cell Surface Area=length of cell migration (mm)×2×length. Percent Closure (%)=Migrated Cell Surface Area/Total Surface Area x 100.

[1] = Table 3; cited from earlier work
rats [2] = conditions: cited from earlier work
[3] = cited from earlier work
[4] = cited from earlier work; remark: listed apart in the source
BBB = conditions: cited from earlier work
[5] = 12 mM cyclodextrin, 5 μM A2E, blue-light irradiation or 1 d in the dark; cited from earlier work
[6] = test system: enlarged lysosomes in fibroblasts; conditions: about 6 mM α-CD vs about 8 mM HP-β-CD; cited from earlier work
HaCaT keratinocytes = conditions: v. βCD; cited from earlier work
[7] = parenteral delivery; cited from earlier work
[8] = in vivo; cited from earlier work
human erythrocytes = conditions: cited from earlier work
[9] = animal studies; cited from earlier work
erythrocytes = conditions: cited from earlier work
transferrin endocytosis = conditions: 10 mM; cited from earlier work
NPC cells = conditions: cited from earlier work
[10] = LDL-receptor knockout mice, Western diet (21% milk fat) with 2.1% α-CD; cited from earlier work
rats [11] = conditions: rat, in vivo, iv; cited from earlier work
rats [12] = conditions: cited from earlier work; for nephrosis, 1, 2, 3, 4, or 7 daily doses s.c.: 0.100 g/kg daily
human keratinocytes = conditions: cited from earlier work
APP = conditions: AD mouse cells; cited from earlier work
[13] = even in the relative absence of cholesterol; cited from earlier work
[14] = biological target: BC resistance protein (BCRP/ABCG2) (Homo sapiens, UniProt Q9UNQ0); conditions: cited from earlier work
Chain of BC resistance protein (BCRP/ABCG2) (Q9UNQ0 whole entry): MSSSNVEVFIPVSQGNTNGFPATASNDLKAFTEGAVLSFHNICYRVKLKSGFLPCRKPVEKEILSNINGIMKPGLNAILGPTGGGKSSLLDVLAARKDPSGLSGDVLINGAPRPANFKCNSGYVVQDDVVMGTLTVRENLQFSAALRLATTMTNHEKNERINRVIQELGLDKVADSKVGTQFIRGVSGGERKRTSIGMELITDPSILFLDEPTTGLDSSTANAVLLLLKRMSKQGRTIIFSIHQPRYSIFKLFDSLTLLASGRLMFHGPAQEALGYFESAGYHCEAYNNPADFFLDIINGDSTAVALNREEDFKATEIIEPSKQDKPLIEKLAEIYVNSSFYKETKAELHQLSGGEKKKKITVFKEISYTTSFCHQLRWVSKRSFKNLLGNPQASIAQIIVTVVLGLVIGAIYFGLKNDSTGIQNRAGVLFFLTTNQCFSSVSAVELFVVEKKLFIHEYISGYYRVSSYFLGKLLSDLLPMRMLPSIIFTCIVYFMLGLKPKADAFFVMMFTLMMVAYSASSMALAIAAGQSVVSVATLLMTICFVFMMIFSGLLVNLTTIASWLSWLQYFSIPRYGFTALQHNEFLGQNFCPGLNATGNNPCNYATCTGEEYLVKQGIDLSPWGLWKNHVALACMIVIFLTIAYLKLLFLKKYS

[15] = test system: H7 Lewis lung cancer cell lines; conditions: three H7 Lewis lung cancer cell lines; cited from earlier work
[16] = test system: MDA-MB-241 and ZR751 BC cells; conditions: cited from earlier work
MCF7 BC cells = conditions: cited from earlier work
Aβ = conditions: rat hippocampal neurons infected with SFV carrying APP; cited from earlier work
[17] = test system: H7-O Lewis lung cancer cells; conditions: mice implanted with H7-O Lewis lung cancer cells; cited from earlier work
[18] = test system: primary effusion lymphoma (PEL); conditions: mice; cited from earlier work
BC = conditions: in vivo; cited from earlier work
MDA-MB-231 BC cells = conditions: independently of cholesterol; cited from earlier work
a-syn = biological target: T1, a-syn (Homo sapiens, UniProt P37840); conditions: transfected cells, immunoblot; cited from earlier work
T1 construct: expressed in transfected cells

α-synuclein [19] = biological target: T2, α-synuclein (Homo sapiens, UniProt P37840); parameters: expressed in transfected cells; host or cells: HeLa cells; conditions: HeLa cells, 20 mM, 1 hr; cited from earlier work
α-synuclein [20] = biological target: T2, α-synuclein; parameters: from tissue; host or cells: brain of hα-syn transgenic mice; conditions: mice; cited from earlier work

OC[C@H]1O[C@@H]2O[C@H]3[C@H](O)[C@@H](O)[C@@H](O[C@H]4[C@H](O)[C@@H](O)[C@@H](O[C@H]5[C@H](O)[C@@H](O)[C@@H](O[C@H]6[C@H](O)[C@@H](O)[C@@H](O[C@H]7[C@H](O)[C@@H](O)[C@@H](O[C@H]1[C@H](O)[C@H]2O)O[C@@H]7CO)O[C@@H]6CO)O[C@@H]5CO)O[C@@H]4CO)O[C@@H]3CO [α-CD, alpha-cyclodextrin]
dose with the same efficacy in preventing migration of cancer cells as 2000 mg/kg/d bCD (MCF-7 cells): 700 mg/kg/day | Solubility in water [1]: 130 to 145 mg/mL | nephrosis, single dose s.c. (rats [2]; 0.100 g/kg): 0.100 no changes | nephrosis, single dose s.c. (rats [2]; 1.000 g/kg): 1.000 changes seen | oral absorption in rats [3]: 2-3% | i.v. toxicity, 1 g daily [4]: 1 died | BBB breakdown (BBB): 1 mM | toxicity on BBB in vitro (BBB): more toxic | protection of A2E against oxidation [5]: not | reducing lysosomal storage [6]: more effective | toxicity in HaCaT cells (proliferation, caspase activity, lactose dehydrogenase) (HaCaT keratinocytes): lower toxicity | excretion into the urine [7]: excreted almost completely in an intact form | tolerance in cyclosporine eye-drops [8]: well tolerated | hemolytic activity / tolerance of human erythrocytes (human erythrocytes): lower than that of both β-CD and HP-β-CD; also recorded: tolerate α-CD better then β-CD | ototoxicity [9]: did not show ototoxicity | phospholipids released (erythrocytes; 10 mM): 30% | extraction of cholesterol (erythrocytes; erythrocytes): negligible | reduction of transferrin endocytosis (transferrin endocytosis): 20% | cholesterol accumulation (NPC cells): can reduce cholesterol accumulation | decrease of plasma PLs [10]: 17.5% | single dose i.v. LD50 (rats [11]): 0.788/1.008 * g/kg | nephrosis, 1, 2, 3, 4, or 7 daily doses s.c. (rats [12]; listed as α-cyclodextrin): not apparent | nephrosis, 1, 2, 3, 4, or 7 daily doses s.c. (rats [12]): 0.100 no nephrosis | deaths, daily doses s.c. (rats [12]; 1.000 g/kg daily, listed as α-cyclodextrin): 1 died after 2 days | deaths, daily doses s.c. (rats [12]; 1.000 g/kg daily): one died after 2 days | nephrosis, daily doses s.c. (rats [12]; 1.000 g/kg daily): 1.000 severe | apoptotic cell death (human keratinocytes): not apoptotic

methyl-β-cyclodextrin [MβCD]
toxicity on BBB in vitro (BBB): similar | protection of A2E against oxidation [5]: protect A2E against oxidation | APPsα levels in the medium (APP): increased | APPsβ levels in the medium (APP): did not change | levels of intracellular APPsβ (APP): decrease | levels of α secretase cleavage products C83 (APP): increase | LPC or FFA mediated surfactant inhibition [13]: reversed | decrease in activity of BC resistance protein (BCRP/ABCG2) [14]: 40% | invasion activity [15]: suppressed invasion activity | spheroid migration and invasion [16]: inhibited | endocytosis and migration (MCF7 BC cells): inhibited | secretion of Aβ (Aβ): inhibits secretion | number of lung metastases [17]: reduced the number of lung metastases | growth of primary effusion lymphoma (PEL) [18]: inhibited growth | efficacy in a mouse model of BC (BC): effective | internalization of exosomes containing integrins (MDA-MB-231 BC cells): inhibited | cholesterol accumulation (NPC cells): most potent | level of a-syn in the membrane fraction and detergent-insoluble fraction (a-syn): reduced the level of a-syn | co-location of α-synuclein with the cell membrane (α-synuclein [19]): dramatically reduced | accumulation of α-synuclein in neuronal cell body and synapses (α-synuclein [20]): reduced accumulation
